From ChEMBL document CHEMBL1201862, “PubChem BioAssay data set” (2004)
Values belong to the compound of their own block, whether it stands above or below them. Calls of active or inactive are those of the source.

Assays:
[1] = target: Peroxisome proliferator-activated receptor gamma/Nuclear receptor coactivator 2 (Homo sapiens, UniProt P37231); assay type: functional;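 also: agonist potency for raising coactivator recruitment to the receptor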
[2] = target: Peroxisome proliferator-activated receptor gamma/Nuclear receptor coactivator 1 (Homo sapiens, UniProt P37231); assay type: functional;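 also: agonist potency as compounds enhance coactivator SRC-1 recruitment to PPARgamma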
[3] = target: Peroxisome proliferator-activated receptor gamma/Nuclear receptor coactivator 3 (Homo sapiens, UniProt P37231); assay type: functional;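 also: agonist potency for raising coactivator recruitment to the receptor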
Peroxisome proliferator-activated receptor gamma/Nuclear receptor coactivator 3, sequence (P37231 whole entry): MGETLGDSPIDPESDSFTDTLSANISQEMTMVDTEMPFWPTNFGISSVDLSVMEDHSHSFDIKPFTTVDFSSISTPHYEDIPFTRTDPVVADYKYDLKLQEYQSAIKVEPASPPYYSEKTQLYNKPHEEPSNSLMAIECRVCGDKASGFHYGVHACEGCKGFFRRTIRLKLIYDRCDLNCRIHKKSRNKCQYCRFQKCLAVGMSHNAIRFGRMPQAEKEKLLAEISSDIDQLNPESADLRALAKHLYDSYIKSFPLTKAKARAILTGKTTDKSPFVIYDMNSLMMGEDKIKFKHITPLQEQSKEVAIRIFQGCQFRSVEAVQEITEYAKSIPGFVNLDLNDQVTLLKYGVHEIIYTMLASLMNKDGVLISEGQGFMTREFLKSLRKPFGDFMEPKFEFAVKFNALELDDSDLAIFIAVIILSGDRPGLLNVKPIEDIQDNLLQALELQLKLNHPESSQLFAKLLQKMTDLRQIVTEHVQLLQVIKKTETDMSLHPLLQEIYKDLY
Peroxisome proliferator-activated receptor gamma/Nuclear receptor coactivator 3, sequence (Q9Y6Q9 whole entry, further chain): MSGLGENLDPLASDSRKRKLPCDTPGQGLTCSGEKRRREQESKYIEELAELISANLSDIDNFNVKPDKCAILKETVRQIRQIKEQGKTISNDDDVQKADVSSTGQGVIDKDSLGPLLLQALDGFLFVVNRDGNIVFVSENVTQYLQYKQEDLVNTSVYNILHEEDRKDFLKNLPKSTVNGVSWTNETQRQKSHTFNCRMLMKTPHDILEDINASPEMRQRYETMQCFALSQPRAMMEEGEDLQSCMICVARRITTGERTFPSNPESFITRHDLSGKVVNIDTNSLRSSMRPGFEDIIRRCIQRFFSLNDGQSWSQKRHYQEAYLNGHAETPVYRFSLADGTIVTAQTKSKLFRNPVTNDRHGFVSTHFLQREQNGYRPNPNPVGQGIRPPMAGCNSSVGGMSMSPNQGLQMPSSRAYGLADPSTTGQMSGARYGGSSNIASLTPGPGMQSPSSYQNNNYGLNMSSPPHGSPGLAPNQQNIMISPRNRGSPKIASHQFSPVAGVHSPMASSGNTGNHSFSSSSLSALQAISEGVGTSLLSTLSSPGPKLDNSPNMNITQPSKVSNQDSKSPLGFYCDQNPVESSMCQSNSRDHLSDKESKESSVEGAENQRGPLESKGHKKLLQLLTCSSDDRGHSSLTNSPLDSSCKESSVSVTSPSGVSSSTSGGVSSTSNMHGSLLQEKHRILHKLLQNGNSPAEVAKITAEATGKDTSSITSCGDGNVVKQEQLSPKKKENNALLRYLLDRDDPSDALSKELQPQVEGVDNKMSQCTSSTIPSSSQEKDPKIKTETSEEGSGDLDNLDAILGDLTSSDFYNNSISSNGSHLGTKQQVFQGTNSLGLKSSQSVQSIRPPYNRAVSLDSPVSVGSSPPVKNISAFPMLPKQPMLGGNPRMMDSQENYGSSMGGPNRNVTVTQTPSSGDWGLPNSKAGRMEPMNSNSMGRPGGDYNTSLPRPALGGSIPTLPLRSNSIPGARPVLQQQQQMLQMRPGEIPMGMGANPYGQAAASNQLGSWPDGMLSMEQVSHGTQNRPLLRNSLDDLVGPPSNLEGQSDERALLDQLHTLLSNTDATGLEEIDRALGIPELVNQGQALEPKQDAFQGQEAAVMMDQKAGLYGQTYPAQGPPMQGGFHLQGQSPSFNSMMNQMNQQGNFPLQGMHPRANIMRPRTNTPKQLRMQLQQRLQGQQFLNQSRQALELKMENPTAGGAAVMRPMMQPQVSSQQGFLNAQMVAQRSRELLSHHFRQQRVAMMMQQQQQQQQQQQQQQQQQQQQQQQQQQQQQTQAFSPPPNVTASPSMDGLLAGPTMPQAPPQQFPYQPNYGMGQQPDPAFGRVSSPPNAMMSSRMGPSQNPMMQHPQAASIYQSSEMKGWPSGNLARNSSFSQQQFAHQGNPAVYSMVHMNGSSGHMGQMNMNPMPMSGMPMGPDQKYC

NS3 = NS3 (Hepatitis C virus, UniProt A3EZJ3); test: PubChem AID 2173; design: species or system Hepacivirus hominis
NS3, sequence (A3EZJ3 whole entry): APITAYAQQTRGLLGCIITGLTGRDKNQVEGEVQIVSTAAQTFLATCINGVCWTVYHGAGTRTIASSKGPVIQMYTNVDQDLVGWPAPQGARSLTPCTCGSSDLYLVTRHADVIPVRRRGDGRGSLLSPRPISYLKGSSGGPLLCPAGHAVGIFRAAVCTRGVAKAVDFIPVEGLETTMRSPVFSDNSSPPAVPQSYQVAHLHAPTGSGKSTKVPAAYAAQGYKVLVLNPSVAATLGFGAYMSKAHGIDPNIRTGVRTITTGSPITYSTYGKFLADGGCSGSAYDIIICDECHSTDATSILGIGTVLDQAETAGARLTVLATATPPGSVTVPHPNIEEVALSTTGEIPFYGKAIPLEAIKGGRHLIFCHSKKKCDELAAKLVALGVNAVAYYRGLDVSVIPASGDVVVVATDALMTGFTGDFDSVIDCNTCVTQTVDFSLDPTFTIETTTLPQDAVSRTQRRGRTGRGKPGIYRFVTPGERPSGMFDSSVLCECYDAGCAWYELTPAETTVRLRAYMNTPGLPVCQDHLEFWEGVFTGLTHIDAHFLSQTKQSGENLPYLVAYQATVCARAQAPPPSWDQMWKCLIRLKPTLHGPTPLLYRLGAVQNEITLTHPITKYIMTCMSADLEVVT

[4] = mitochondrial function rescue without frataxin homolog – Friedreich's ataxia, plus single-dose screen, dose response (AID 1465); assay type: functional;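 also: yeast depleted of Yfh1p frataxin homolog grown on glycerol needing respiration; WST-1 tetrazolium dye reduction as measure of cellular dehydrogenase metabolic activity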
[5] = target: Induced myeloid leukemia cell differentiation protein Mcl-1 (Homo sapiens, UniProt Q07820); assay type: functional
Induced myeloid leukemia cell differentiation protein Mcl-1, sequence (Q07820 whole entry): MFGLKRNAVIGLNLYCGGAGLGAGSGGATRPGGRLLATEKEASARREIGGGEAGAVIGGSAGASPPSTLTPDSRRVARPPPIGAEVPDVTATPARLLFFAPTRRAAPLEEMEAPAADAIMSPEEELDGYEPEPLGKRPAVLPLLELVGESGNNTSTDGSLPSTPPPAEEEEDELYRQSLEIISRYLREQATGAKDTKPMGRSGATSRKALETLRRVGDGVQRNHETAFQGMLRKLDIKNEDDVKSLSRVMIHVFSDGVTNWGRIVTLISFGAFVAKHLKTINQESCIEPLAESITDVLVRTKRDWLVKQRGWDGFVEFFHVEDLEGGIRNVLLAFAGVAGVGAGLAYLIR

[6] = target: T1, Mannose-6-phosphate isomerase (Homo sapiens, UniProt P34949); test: MPI inhibition at elevated mannose 6-phosphate – biochemical, fluorescence intensity, high mannose 6-phosphate, primary screen (AID 1220)
T1 sequence (P34949 whole entry): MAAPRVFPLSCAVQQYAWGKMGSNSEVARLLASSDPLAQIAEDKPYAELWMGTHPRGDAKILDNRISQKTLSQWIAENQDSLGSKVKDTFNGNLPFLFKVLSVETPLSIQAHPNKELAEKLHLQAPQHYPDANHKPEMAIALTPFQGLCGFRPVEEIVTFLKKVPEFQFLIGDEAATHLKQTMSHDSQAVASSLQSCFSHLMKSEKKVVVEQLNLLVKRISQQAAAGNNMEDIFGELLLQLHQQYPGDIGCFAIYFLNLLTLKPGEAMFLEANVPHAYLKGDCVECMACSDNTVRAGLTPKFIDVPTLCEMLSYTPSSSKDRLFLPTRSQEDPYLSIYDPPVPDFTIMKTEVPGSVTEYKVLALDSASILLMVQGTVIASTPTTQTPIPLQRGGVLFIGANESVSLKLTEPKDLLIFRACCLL

[7] = viability loss in THP-1 monocytes – THP-1 cells, cytotoxicity control for Vif-APOBEC3G degradation inhibitor project, dose response (AID 1117359); assay type: functional; conditions: THP-1
Estrogen receptor = target: T2, Estrogen receptor (Homo sapiens, UniProt P03372); test: ERα coactivator recruitment enhancers – biochemical, TR-FRET, ERα LBD, dose response (AID 737)
T2 sequence (P03372 whole entry): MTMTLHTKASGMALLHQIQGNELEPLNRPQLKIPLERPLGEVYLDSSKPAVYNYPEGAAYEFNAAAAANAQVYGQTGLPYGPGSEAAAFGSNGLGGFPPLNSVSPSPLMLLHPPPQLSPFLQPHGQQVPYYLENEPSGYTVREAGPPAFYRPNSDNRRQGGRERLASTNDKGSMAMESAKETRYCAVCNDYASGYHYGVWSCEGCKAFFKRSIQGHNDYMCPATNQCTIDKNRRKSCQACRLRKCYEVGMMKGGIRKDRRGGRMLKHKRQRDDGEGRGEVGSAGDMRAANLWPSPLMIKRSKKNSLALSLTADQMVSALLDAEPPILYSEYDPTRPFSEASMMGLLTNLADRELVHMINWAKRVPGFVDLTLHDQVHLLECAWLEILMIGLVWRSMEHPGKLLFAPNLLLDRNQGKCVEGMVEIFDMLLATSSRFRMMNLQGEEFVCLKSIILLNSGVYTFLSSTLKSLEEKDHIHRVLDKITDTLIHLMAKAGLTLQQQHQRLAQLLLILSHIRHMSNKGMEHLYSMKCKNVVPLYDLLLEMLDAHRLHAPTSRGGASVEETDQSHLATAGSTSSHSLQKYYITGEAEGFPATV

[8] = target: DNA (cytosine-5)-methyltransferase 1 (Homo sapiens, UniProt P26358); test: inhibition of DNA methylation by DNMT1 – biochemical, fluorescent molecular beacon, confirmation (AID 602386); assay type: functional
DNA (cytosine-5)-methyltransferase 1, sequence (P26358 whole entry): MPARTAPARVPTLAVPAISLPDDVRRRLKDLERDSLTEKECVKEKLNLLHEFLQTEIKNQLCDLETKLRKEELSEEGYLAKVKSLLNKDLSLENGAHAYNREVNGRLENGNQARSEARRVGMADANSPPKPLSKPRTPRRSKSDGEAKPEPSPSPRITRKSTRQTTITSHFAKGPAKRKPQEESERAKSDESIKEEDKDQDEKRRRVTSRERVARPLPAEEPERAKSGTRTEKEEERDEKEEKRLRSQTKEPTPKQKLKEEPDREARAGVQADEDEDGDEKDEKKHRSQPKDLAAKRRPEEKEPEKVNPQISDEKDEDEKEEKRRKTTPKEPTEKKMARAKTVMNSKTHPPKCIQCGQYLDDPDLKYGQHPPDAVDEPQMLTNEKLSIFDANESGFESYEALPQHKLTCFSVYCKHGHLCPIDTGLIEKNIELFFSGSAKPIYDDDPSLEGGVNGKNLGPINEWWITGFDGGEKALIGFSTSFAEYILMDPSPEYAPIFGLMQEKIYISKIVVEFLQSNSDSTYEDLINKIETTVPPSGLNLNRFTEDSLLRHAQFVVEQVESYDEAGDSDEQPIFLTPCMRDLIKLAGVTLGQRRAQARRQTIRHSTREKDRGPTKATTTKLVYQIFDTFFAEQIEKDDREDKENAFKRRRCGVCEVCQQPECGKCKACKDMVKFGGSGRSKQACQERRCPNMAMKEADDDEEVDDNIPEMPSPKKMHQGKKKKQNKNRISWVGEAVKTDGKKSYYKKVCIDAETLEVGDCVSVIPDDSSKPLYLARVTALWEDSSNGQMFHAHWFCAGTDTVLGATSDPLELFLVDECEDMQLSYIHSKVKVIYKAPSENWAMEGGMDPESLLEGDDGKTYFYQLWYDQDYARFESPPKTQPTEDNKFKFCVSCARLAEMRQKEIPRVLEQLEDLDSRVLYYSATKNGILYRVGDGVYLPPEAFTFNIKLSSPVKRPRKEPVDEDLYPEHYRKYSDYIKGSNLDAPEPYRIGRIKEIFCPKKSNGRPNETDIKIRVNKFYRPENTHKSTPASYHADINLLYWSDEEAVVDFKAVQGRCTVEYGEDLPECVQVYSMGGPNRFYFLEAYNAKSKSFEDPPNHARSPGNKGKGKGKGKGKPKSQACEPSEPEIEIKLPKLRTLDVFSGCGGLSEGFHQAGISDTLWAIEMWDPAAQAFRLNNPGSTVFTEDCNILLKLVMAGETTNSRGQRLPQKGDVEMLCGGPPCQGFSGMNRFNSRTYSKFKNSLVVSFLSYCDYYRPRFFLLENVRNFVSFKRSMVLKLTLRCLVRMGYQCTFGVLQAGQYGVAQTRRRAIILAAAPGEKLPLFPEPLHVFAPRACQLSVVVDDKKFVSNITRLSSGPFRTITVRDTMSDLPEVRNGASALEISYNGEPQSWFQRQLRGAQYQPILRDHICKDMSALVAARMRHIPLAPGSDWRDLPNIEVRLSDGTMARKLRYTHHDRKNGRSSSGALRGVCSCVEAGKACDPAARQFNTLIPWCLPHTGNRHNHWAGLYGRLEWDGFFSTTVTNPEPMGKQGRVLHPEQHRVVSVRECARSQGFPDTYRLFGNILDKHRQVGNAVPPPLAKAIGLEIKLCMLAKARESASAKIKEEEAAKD

EC50 [1]: 16 µM (not active) | EC50 [2]: 17.6 µM (not active) | EC50 [3]: 19.9 µM (not active)
Compound: O=C(NC(=S)Nc1ccccc1)c1ccc(Br)o1

IC50 (NS3): 5.31 µM (active) | IC50 [5]: 7.33 µM (active) | IC50 [6]: 5.36 µM (active)
Compound: CCN(CC)S(=O)(=O)c1cccc(C(=O)N/N=C/c2ccc(O)c(O)c2O)c1
EC50 [4]: > 100 µM (active) | CC50 [7]: > 40 µM (active)

EC50 (Estrogen receptor): 9.92 µM (active) | IC50 [8]: 9.12 µM (active)
Compound: O=C(CSc1nc2c(cnn2-c2ccccc2)c(=O)[nH]1)c1ccc(Cl)cc1
